Source: patent US6420341B1, “Sulphur derivatives with a retroamide bond as endothelin-converting enzyme inhibitors” (Aventis Pharma S.A., priority 1996, dated 2002)

Each molecule was assayed against T1, endothelin-converting enzyme (ECE) (Homo sapiens, UniProt P42892) (assay: Determination of the inhibitory activity of the endothelin-converting enzyme (ECE), cleavage of (2,3-3H)propionyl-b-ET-1(19-35)). Conditions: purified ECE, pre-incubation 30 minutes at 37° C., Tris maleate buffer pH=6.5, incubation one hour at 37° C.; read-out: IC50 (concentration which causes a 50% inhibition of ECE).
T1 sequence (P42892 1-770): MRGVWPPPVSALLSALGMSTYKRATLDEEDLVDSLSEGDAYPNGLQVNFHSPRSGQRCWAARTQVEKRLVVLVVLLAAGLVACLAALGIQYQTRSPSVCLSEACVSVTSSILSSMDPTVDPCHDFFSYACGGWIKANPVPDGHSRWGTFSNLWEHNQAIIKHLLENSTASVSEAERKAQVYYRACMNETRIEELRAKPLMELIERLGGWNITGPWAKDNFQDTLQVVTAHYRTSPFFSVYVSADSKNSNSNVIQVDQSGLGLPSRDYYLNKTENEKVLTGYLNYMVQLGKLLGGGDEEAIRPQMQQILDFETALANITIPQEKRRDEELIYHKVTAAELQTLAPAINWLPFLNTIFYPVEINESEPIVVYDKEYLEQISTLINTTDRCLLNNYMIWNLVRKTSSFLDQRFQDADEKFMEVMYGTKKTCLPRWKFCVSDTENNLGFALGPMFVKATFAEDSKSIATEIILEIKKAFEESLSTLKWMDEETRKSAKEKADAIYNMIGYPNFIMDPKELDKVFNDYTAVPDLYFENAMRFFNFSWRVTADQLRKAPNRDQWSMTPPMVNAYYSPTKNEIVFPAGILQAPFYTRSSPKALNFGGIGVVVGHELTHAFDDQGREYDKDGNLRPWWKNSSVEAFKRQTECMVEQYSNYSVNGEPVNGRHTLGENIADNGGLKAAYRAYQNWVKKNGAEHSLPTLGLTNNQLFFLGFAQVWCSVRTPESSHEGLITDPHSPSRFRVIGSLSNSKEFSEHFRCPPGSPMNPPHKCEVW
Format: biochemical
Text: A test is used, in which the product (2,3-^3H)propionyl-b-ET-1(19-35) prepared as indicated below in a) is cleaved by ECE into the product (2,3-^3H)propionyl-b-ET-1(19-21) in the presence of product P of which the inhibitory activity of ECE one wishes to determine as indicated below in b): the inhibitory activity of ECE of the product P will therefore be accordingly as high as the quantity of product of formula (II) formed, determined by counting the radioactivity, will be low. The operation is carried out as follows:
10 μl of ECE i.e. 1 to 2 μg of purified ECE are pre-incubated for 30 minutes at 37° C., in 400 μl of a 50 mM Tris maleate buffer pH=6.5, 20 μl of 5M sodium chloride and 5 μl of product P the inhibitory activity of which one wishes to test, in solution at different concentrations (comprised between […]) (i.e. final concentrations in product P of 10 nM to 1 mM).
The reaction is initiated by the addition of 10 μl of (2,3-^3H)propionyl-b-ET-1(19-35) prepared as indicated above in a), at a final concentration of 1.8.10^−12M.
After incubation for one hour at 37° C., the reaction is stopped by the addition of 600 μl of ethyl acetate and the (2,3-^3H)propionyl-b-ET-1(19-21) is extracted by mechanical agitation for 2 minutes.
300 μl of the organic phase is removed, 5 ml of liquid scintillator is added and the radioactivity is counted for 1 minute with a liquid scintillation counter.
Each measurement is carried out in triplicate except for the ECE control (control enzyme, without the product the ECE inhibitory activity of which one wishes to test), for which the measurement is carried out six times.
The percentage inhibition is calculated by establishing the relationship: [formula]
The blank is carried out starting with the solution obtained without enzyme.
From the cpm's obtained and by plotting the graph of the percentage of inhibition relative to the concentration of inhibitor (nM), the IC50 is calculated which therefore corresponds to the concentration which causes a 50% inhibition of ECE.
In the case of `N#Cc1ccccc1-c1ccc(CC(C(=O)O)C(=O)N[C@@H](CS)Cc2ccccc2)cc1` (mixture of isomers) [Example 4, 2′-cyano-alpha-[[[1-(mercaptomethyl)-2-phenylethyl]amino]carbonyl]-(1,1′-biphenyl)-4-propanoic acid], the IC50 is reported as 30 nM.
`N#Cc1ccccc1-c1ccc(CC(C(=O)O)C(=O)NC(CS)Cc2ccc(OS(=O)(=O)C(F)(F)F)cc2)cc1` (stereo not drawn) [Example 10, 2′-Cyano-alpha-[[[1-(mercaptomethyl) 2-(paratrifluoromethylsulphonyloxy)phenylethyl]amino]carbonyl](1,1′-biphenyl) 4-propanoic acid] gave an IC50 of 150 nM.
`O=C(CCCCCCCCCCOc1ccccc1)N[C@@H](CS)Cc1ccccc1` [Example 6] showed an IC50 of 220 nM.
